Values quoted from earlier work, collected in patent publication US20200068939A1, “Nutritional compositions to increase and sustain blood ketone levels” (JHO Intellectual Property Holdings LLC, priority 2018, published 2020).

Assays:
[1] = acute ingestion, 15 min to 6 hr
[2] = not given; remark: listed apart in the source

bHB in short-term nutritional ketosis [1]	blood βHB concentration at the start of the OGTT ([2]; 482 mg/kg 30 min before glucose bolus)	blood βHB concentration at the end of the OGTT ([2]; 482 mg/kg 30 min before glucose bolus, end of 2 h test)	SMILES	stimulation of ketone production (2.5 mg/kg given at breakfast)	plasma free fatty acids (2.5, 5.0 mg/kg given at breakfast)	reduction in 2 h AUC for serum FFAs ([2]; 482 mg/kg, 2 h)	reduction of plasma glucose AUC ([2]; 482 mg/kg, over the 2 h period)
			Cn1c(=O)c2c(ncn2C)n(C)c1=O [Caffeine]	+88%	raised plasma free fatty acids		
> 1 mM	~3 mM	~1.5 mM	C[C@@H](O)CCOC(=O)C[C@@H](C)O [KME, (R)-3-hydroxybutyl (R)-3-hydroxybutyrate]			44%	16%
